The text below walks through data of patent US6046182A, “Steroid carbamates as potentiating agents” (Satish BATRA, priority 1996, dated 2000).

The structures appear in SMILES notation. Like-named read-outs stand apart in the source and are kept apart here.

One test deals with AT-1. Nature of the test: Potentiation of daunorubicin (30 nM) in rat prostatic tumor cells AT-1 (cell survival, Coulter counter). In kind it is cell-based.
The test system of a further test is HCT-15 cells. Kind of test: In vivo HCT-15 subcutaneous xenograft in SCID mice, doxorubicin alone or plus compound 1:1. As to conditions: days 9, 13, 17. The arrangement: Significance (p) of difference in tumor growth between (1) vehicle and (2) doxorubicin, symbol * / Significance (p) of difference in tumor growth between (1) vehicle and (2) doxorubicin, symbol ***: dose or concentration left out as unconfirmed.

The subject of another test is HCT-15. Kind of test: Potentiation of daunorubicin (50 nM) in human colon tumor cells HCT-15 (cell survival, Coulter counter). In kind it is cell-based. As to conditions: HCT-15, read-out: IC50, HCT-15 (concentration required to reduce cell survival by 50%).
The conditions of test [1]: cited from earlier work.
In another test the test system is tumors. To be noted: animal models; cited from earlier work.
Where [2] appears, read: with daunorubicin 30 nM, 24 h, then 96 h drug free, AT-1, read-out: IC50, AT-1 (concentration required to reduce cell survival by 50%).

Regarding `CCCCN(CCCC)CCCNC(=O)OC1CC[C@@]2(C)C(=CC[C@H]3[C@@H]4CC[C@H](C(C)=O)[C@@]4(C)CC[C@@H]32)C1` (stereo partly shown) [1:4, pregn-5-ene-20-one-3-yl, N-(3-dibutylamino-propyl)-carbamate], in the test on AT-1 (setting [2]), the IC50 was 190 nM.

As for `CCCCN(CCCC)CCCNC(=O)OC(C)[C@H]1CC[C@H]2[C@@H]3CCC4=CC(=O)CC[C@]4(C)[C@H]3CC[C@]12C` (stereo partly shown) [1:13, pregn-4-ene-3-one-20-yl, N-(3-dibutylamino-propyl)-carbamate], the IC50 with AT-1 (setting [2]) was found to be 210 nM.

Take `CC(=O)[C@H]1CC[C@H]2[C@@H]3CCC4=CC(=O)CC[C@]4(C)[C@H]3C(OC(=O)N(Cc3ccccc3)Cc3ccccc3)C[C@]12C` (stereo partly shown) [1:35, pregn-4-ene-3,20-dione-11-yl, N,N-dibenzyl-carbamate]: the IC50 with AT-1 (setting [2]) came to 150 nM.

With `CCCCN(CCCC)C(=O)OC1C[C@]2(C)[C@@H](C(C)=O)CC[C@H]2[C@@H]2CCC3=CC(=O)CC[C@]3(C)[C@@H]12` (stereo partly shown) [Compound 1:1, pregn-4-ene-3,20-dione-11-yl, N,N-dibutylcarbamate], the IC50 with AT-1 (setting [2]) worked out at 760 nM; with HCT-15 (with daunorubicin 50 nM, 24 h, then 96 h drug free), 510 nM. In the test on HCT-15 cells (compound 1:1 400 mg/kg p.o. 2 hours before doxorubicin i.v.), the “Potentiating effect in vivo” value was “potentiating effect”.

For `COc1ccc(CCN(C)CCCC2(c3ccc4ccccc4c3)SCCCS2)cc1OC` [RO 11-2933], the “In vivo activity in combination with doxorubicin” value in test [1] is “in vivo activity”.

Turning to `COc1cccc2c1C(=O)c1c(O)c3c(c(O)c1C2=O)C[C@@](O)(C(=O)CO)C[C@@H]3O[C@H]1C[C@H](N)[C@H](O)[C@H](C)O1` [doxorubicin], the “Significance (p) of difference in tumor growth between (1) vehicle and (2) doxorubicin, symbol *” value with HCT-15 cells (doxorubicin i.v., symbol *) is on record as less than 0.05. For the same compound, the “Significance (p) of difference in tumor growth between (1) vehicle and (2) doxorubicin, symbol ***” value in the test with HCT-15 cells (doxorubicin i.v., symbol ***) is listed as less than 0.005.

As to `CC12CCC3c4ccc(OC(=O)N(CCCl)CCCl)cc4CCC3C1CCC2O` (stereo not shown) [estramustine], the “Potentiation of radiation effects on tumors” value with tumors is given as “potentiate radiation effects on tumors”. Further, the IC50 in the test with HCT-15 is greater than 2500 nM.

For `COc1ccc(CCN(C)CCCC(C#N)(c2ccc(OC)c(OC)c2)C(C)C)cc1OC` (stereo not shown) [verapamil], the IC50 with AT-1 (read-out: IC50, AT-1 (concentration required to reduce cell survival by 50%)) came to 740 nM; in the test on HCT-15 it was 500 nM.
